# Data reported in paper PMC8242589, “Cardiac Safety of Kinase Inhibitors – Improving Understanding and Prediction of Liabilities in Drug Discovery Using Human Stem Cell-Derived Models” (Frontiers in Cardiovascular Medicine, 2021).
# Several values for one entry are separate records, joined by “and”; a condition that tells them apart may be missing. Equal values may be shown once. Read-outs that look alike come from different tables or passages of the source.
# Columns and labels:
# [1] = tested on: hSC-CMs (Cor.4U Cardiomyocytes); experiment: ATP assay (CellTiter-Glo Luminescent Cell Viability Assay); format: cell-based, human; details: for ATP: normalized to time-matched DMSO control
# Method: Cor.4U® Cardiomyocytes (Ncardia, Netherlands) were cultured in 96-well plates at density of 25,000 – 30,000 cells per well. Cells were maintained at 5% CO2 and 37 °C for 4 days prior to experiments. The cell culture medium (Cor4U® Complete Culture Medium, cat# Ax-M-HC250E, Axiogenesis AG, Cologne, Germany) was changed every 24 h and was replaced by serum-free BMCC medium (cat# Ax-M-BMCC259, Axiogenesis AG, Cologne, Germany) 12 h prior to drug addition.
# The CellTiter-Glo Luminescent Cell Viability Assay (cat# G7572, Promega, USA) was performed for quantification of the cellular ATP concentration according to manufacturer's instructions. Plates were shaken for 2 min in the dark, incubated at ambient temperature for 10 min before measuring luminescence (Integration time 0.1 seconds per well) with Luminescence Counter (Synergy H1, BioTek Instruments, Inc., Winooski, Vermont). The measured ATP concentration values were normalized to the time-matched DMSO controls. Data are representative of at least three replicates per concentration.
# [2] = tested on: hSC-CMs (Cor.4U Cardiomyocytes); experiment: CardioExcyte 96 impedance and EFP recording (beating rate, base impedance); format: cell-based, human; details: for BR / Base Imp / activity at 0.03 µM / activity at 0.3 µM / activity at 3 µM / activity at 30 µM: vs baseline before drug (taken as 100%); for activity at 0.03 µM / activity at 0.3 µM / activity at 3 µM / activity at 30 µM: Homo sapiens, Cardiomyocyte
# Method: Cor.4U® Cardiomyocytes (Ncardia, Netherlands) were cultured in 96-well plates at density of 25,000 – 30,000 cells per well. Cells were maintained at 5% CO2 and 37 °C for 4 days prior to experiments.
# Functional monitoring of cardiomyocytes was done using CardioExcyte® 96 (Nanion technologies GmbH, Germany). Extracellular field potential (EFP) and impedance signals were recorded from hSC-CMs that formed monolayers in the wells of the NSP-96 plate. Beating Rate (BR, per minute) was calculated as the reciprocal of the inter-spike interval (ISI) in EFP signal. Impedance signals from spontaneously beating hSC-CMs were recorded with a sampling rate of 1 ms (1 kHz), and EFP data were collected at 0.1ms (10 kHz). Data acquisition was controlled by CardioExcyte® 96 Control software as previously described ([22]). The functional parameters recorded in each concentration of test items were compared to the base line values before drug addition (taken as 100%) to define fractional change.
# [3] = tested on: hSC-CMs (Cor.4U Cardiomyocytes); experiment: Apoptosis assay (CellEvent Caspase-3/7 Green, IncuCyte ZOOM kinetics over 24 h); format: cell-based, human; set-up: key to Caspase / Caspase MEAN: % of time-matched vehicle control (green object area); details: for Caspase / activity at 0.03 µM / activity at 0.3 µM / activity at 3 µM / activity at 30 µM: normalized to time-matched vehicle control; for activity at 0.03 µM / activity at 0.3 µM / activity at 3 µM / activity at 30 µM: Homo sapiens, Cardiomyocyte; for Caspase MEAN: DMSO = 100
# Method: Cor.4U® Cardiomyocytes ([…], Netherlands) were cultured in 96-well plates at density of 25,000 - 30,000 cells per well. Cells were maintained at 5% CO2 and 37 °C for 4 days prior to experiments. […] The plates were incubated 2 h before compound treatment in the IncuCyte ZOOM (ESSEN BioScience, Ann Arbor, Michigan) to set a baseline before the 24 h compound treatment. […] Imaging was done using 10x microscope objective of the IncuCyteZOOM with four images per well-taken every 2 h in both phase-contrast and green fluorescence. The fluorescent nuclear signal of the apoptotic cells was separated from background with the integrated object counting algorithm, adjusted to cardiomyocytes, and the calculated total green object area per well (μm^2/well) plotted against time. Data were normalized to those of the time-matched vehicle control. Data were representative of at least three replicates per concentration.
# PI3K p110β = details: ref [23]–[25] (NVP-BEZ235), [27] (LY 294002), [28] (GDC-0941), [32] (TGX-221), [33] (CAL-101), [35] (CZC24832); read-out: Target IC50 p110β; cited from earlier work
smiles,measurement,setting,value
CCOC(=O)c1cnc2ccc(-c3cncc(NS(=O)(=O)c4ccccc4)c3)cn12 [HS-173],ATP,"[1]; 0.03 µM, 2h",89
same,ATP,"[1]; 0.03 µM, 24h",98
same,ATP,"[1]; 0.1 µM, 2h",87
same,ATP,"[1]; 0.1 µM, 24h",99
same,ATP,"[1]; 0.3 µM, 2h",86
same,ATP,"[1]; 0.3 µM, 24h",90
same,ATP,"[1]; 1 µM, 2h",86
same,ATP,"[1]; 1 µM, 24h",83
same,Decrease of ATP level,"[1]; hSC-CMs, after 24 h of incubation",20–25%
same,BR,"[2]; 0.03 µM, 2h",105
same,Base Imp,"[2]; 0.03 µM, 2h",87
same,BR,"[2]; 0.03 µM, 24h",97
same,Base Imp,"[2]; 0.03 µM, 24h",87
same,BR,"[2]; 0.1 µM, 2h",93
same,Base Imp,"[2]; 0.1 µM, 2h",83
same,BR,"[2]; 0.1 µM, 24h",89
same,Base Imp,"[2]; 0.1 µM, 24h",85
same,BR,"[2]; 0.3 µM, 2h",85
same,Base Imp,"[2]; 0.3 µM, 2h",81
same,BR,"[2]; 0.3 µM, 24h",84
same,Base Imp,"[2]; 0.3 µM, 24h",72
same,BR,"[2]; 1 µM, 2h",86
same,Base Imp,"[2]; 1 µM, 2h",69
same,BR,"[2]; 1 µM, 24h",75
same,Base Imp,"[2]; 1 µM, 24h",67
same,Reduction of base impedance,"[2]; hSC-CMs, 2 and 24 h",more than 20%
same,Reduction of beating rate,"[2]; hSC-CMs, 2 and 24 h",more than 20%
same,"Apoptosis (caspase-3/7 activation), result in words",[3],induced apoptosis in hSC-CMs with a fast onset
same,Caspase,"[3]; 0.03 µM, 2h",167
same,Caspase,"[3]; 0.03 µM, 24h",80
same,Caspase,"[3]; 0.1 µM, 2h",138
same,Caspase,"[3]; 0.1 µM, 24h",151
same,Caspase,"[3]; 0.3 µM, 2h",123
same,Caspase,"[3]; 0.3 µM, 24h",200
same,Caspase,"[3]; 1 µM, 2h",120
same,Caspase,"[3]; 1 µM, 24h",373
same,Time to reach the maximum number of apoptotic cells,"[3]; hSC-CMs, monitored over 24 h",≤ 12 h
"Cn1c(=O)n(-c2ccc(C(C)(C)C#N)cc2)c2c3cc(-c4cnc5ccccc5c4)ccc3ncc21 [NVP-BEZ235, Dactolisib]",activity at 0.03 µM,"[2]; 0.03 µM, 2h, read-out: BR",99%
same,activity at 0.03 µM,"[2]; 0.03 µM, 2h, read-out: Base Imp",88%
same,activity at 0.03 µM,"[2]; 0.03 µM, 24h, read-out: BR",90%
same,activity at 0.03 µM,"[2]; 0.03 µM, 24h, read-out: Base Imp",85%
same,activity at 0.3 µM,"[2]; 0.3 µM, 2h, read-out: BR",73%
same,activity at 0.3 µM,"[2]; 0.3 µM, 2h, read-out: Base Imp",86%
same,activity at 0.3 µM,"[2]; 0.3 µM, 24h, read-out: BR",57%
same,activity at 0.3 µM,"[2]; 0.3 µM, 24h, read-out: Base Imp",75%
same,activity at 3 µM,"[2]; 3 µM, 2h, read-out: BR",39%
same,activity at 3 µM,"[2]; 3 µM, 2h, read-out: Base Imp",71%
same,activity at 3 µM,"[2]; 3 µM, 24h, read-out: BR",14%
same,activity at 3 µM,"[2]; 3 µM, 24h, read-out: Base Imp",52%
same,activity at 30 µM,"[2]; 2h, read-out: BR",19%
same,activity at 30 µM,"[2]; 2h, read-out: Base Imp",51%
same,activity at 30 µM,"[2]; 24h, read-out: BR",30%
same,activity at 30 µM,"[2]; 24h, read-out: Base Imp",45%
same,"Effect on cardiomyocyte function in 3D surface plots (beating rate, base impedance, ATP), in words","[2]; hSC-CMs, 2 and 24 h",pronounced effects
same,Reduction of base impedance,"[2]; hSC-CMs, 2 and 24 h",more than 20%
same,Reduction of beating rate,"[2]; hSC-CMs, 2 and 24 h",more than 20%
same,activity at 0.03 µM,"[3]; 0.03 µM, 2h",242%
same,activity at 0.03 µM,"[3]; 0.03 µM, 24h",188%
same,activity at 0.3 µM,"[3]; 0.3 µM, 2h",148%
same,activity at 0.3 µM,"[3]; 0.3 µM, 24h",320%
same,activity at 3 µM,"[3]; 3 µM, 2h",72%
same,activity at 3 µM,"[3]; 3 µM, 24h",228%
same,activity at 30 µM,[3]; 2h,86%
same,activity at 30 µM,[3]; 24h,355%
same,"Apoptosis (caspase-3/7 activation), result in words","[3]; hSC-CMs, monitored over 24 h",induced apoptosis in hSC-CMs with a fast onset
same,Time to reach the maximum number of apoptotic cells,"[3]; hSC-CMs, monitored over 24 h",≤ 12 h
CN[C@@H]1C[C@H]2O[C@@](C)([C@@H]1OC)n1c3ccccc3c3c4c(c5c6ccccc6n2c5c31)C(=O)NC4 [Staurosporine],Caspase MEAN,"[3]; 1 µM, Time 2.75",85
same,Caspase MEAN,"[3]; 1 µM, Time 4.75",254
same,Caspase MEAN,"[3]; 1 µM, Time 6.75",1532
same,Caspase MEAN,"[3]; 1 µM, Time 8.75",3137
same,Caspase MEAN,"[3]; 1 µM, Time 10.75",4841
same,Caspase MEAN,"[3]; 1 µM, Time 12.75",5989
same,Caspase MEAN,"[3]; 1 µM, Time 14.75",7301
same,Caspase MEAN,"[3]; 1 µM, Time 16.75",7458
same,Caspase MEAN,"[3]; 1 µM, Time 18.75",8506
same,Caspase MEAN,"[3]; 1 µM, Time 20.75",7604
same,Caspase MEAN,"[3]; 1 µM, Time 22.75",7381
same,Caspase MEAN,"[3]; 1 µM, Time 24.75",7608
same,Caspase MEAN,"[3]; 1 µM, Time 26.75",7240
Cc1cc(C(C)Nc2ccccc2)c2nc(N3CCOCC3)cc(=O)n2c1 (centres unmarked) [TGX-221],IC50,PI3K p110β,5 nM
same,ATP,"[1]; 0.1 µM, 2h",105
same,ATP,"[1]; 0.1 µM, 24h",95
same,ATP,"[1]; 0.3 µM, 2h",100
same,ATP,"[1]; 0.3 µM, 24h",96
same,ATP,"[1]; 1 µM, 2h",97
same,ATP,"[1]; 1 µM, 24h",97
same,ATP,"[1]; 3 µM, 2h",104
same,ATP,"[1]; 3 µM, 24h",104
same,"Effect on ATP level, in words","[1]; hSC-CMs, up to the highest test concentrations",did not have any effect
same,"Effect on hSC-CMs function (base impedance and beating rate), in words",[2],did not have any effect
same,BR,"[2]; 0.1 µM, 2h",98
same,Base Imp,"[2]; 0.1 µM, 2h",107
same,BR,"[2]; 0.1 µM, 24h",94
same,Base Imp,"[2]; 0.1 µM, 24h",106
same,BR,"[2]; 0.3 µM, 2h",93
same,Base Imp,"[2]; 0.3 µM, 2h",104
same,BR,"[2]; 0.3 µM, 24h",91
same,Base Imp,"[2]; 0.3 µM, 24h",100
same,BR,"[2]; 1 µM, 2h",94
same,Base Imp,"[2]; 1 µM, 2h",98
same,BR,"[2]; 1 µM, 24h",95
same,Base Imp,"[2]; 1 µM, 24h",97
same,BR,"[2]; 3 µM, 2h",95
same,Base Imp,"[2]; 3 µM, 2h",97
same,BR,"[2]; 3 µM, 24h",89
same,Base Imp,"[2]; 3 µM, 24h",98
same,"Change in the hSC-CMs parameters (surface plots: beating rate, base impedance, ATP)","[2]; hSC-CMs, 2 and 24 h",below 20%
same,"Apoptosis (caspase-3/7 activation), result in words",[3],no effect
same,Caspase,"[3]; 0.1 µM, 2h",104
same,Caspase,"[3]; 0.1 µM, 24h",87
same,Caspase,"[3]; 0.3 µM, 2h",112
same,Caspase,"[3]; 0.3 µM, 24h",95
same,Caspase,"[3]; 1 µM, 2h",87
same,Caspase,"[3]; 1 µM, 24h",92 and 92.1743
same,Caspase,"[3]; 3 µM, 2h",124
same,Caspase,"[3]; 3 µM, 24h",111 and 110.619
